Here are results for 1 compound from article PMC5304190, “Inhibitory effects of cholinesterase inhibitor donepezil on the Kv1.5 potassium channel” (Scientific Reports, 2017).

The target in this assay is T1, Kv1.5 (Rattus norvegicus, UniProt P19024).
T1 construct: gene Kcna5; Rat Kv1.5 in pEYFP-N1 vector, expressed in HEK293 cells
In words: whole-cell patch clamp of Kv1.[…] expressed in HEK293 cells. Type of assay: cell-based. (Patch clamp records ionic current or voltage across a cell membrane.)

T1 sequence (P19024 whole entry): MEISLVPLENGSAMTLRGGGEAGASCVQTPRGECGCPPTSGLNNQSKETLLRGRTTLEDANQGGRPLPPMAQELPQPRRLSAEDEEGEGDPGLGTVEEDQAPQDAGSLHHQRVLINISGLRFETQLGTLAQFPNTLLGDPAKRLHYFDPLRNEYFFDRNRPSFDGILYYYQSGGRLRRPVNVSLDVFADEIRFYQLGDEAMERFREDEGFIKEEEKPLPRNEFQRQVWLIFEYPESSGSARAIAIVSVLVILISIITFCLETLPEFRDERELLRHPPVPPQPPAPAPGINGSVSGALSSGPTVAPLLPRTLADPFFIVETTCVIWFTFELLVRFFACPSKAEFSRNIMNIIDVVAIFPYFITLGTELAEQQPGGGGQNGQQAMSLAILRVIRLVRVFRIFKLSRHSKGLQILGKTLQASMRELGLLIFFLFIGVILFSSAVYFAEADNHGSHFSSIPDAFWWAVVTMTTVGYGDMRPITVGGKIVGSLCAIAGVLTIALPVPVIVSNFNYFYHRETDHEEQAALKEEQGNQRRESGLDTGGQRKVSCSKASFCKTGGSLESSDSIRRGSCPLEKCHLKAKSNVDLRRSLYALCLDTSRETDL

For the compound `COc1cc2c(cc1OC)C(=O)C(CC1CCN(Cc3ccccc3)CC1)C2` (stereo not shown) [donepezil], the IC50 (in general, the concentration needed to halve the response being measured) came out at 72.5 ± 0.5 µM.
